Test results taken from patent US20100216703A1, “Inhibitors of PDE4 and Methods of Use” (THE REGENTS OF THE UNIVERSITY OF CALIFORNIA, priority 2006, published 2010).
“Also recorded” adds a separate entry of the source.

Assays:
[1] = test system: NIH3T3p75NTR cells; assay: Competitive binding cAMP ELISA; type: cell-based; settings: for intracellular cAMP levels in NIH3T3p75NTR cells: 16 h, PTX 100 ng/ml, IBMX 500 μM, PDE1 inh. 18.7 μM, EHNA 80 μM, trequinsin 100 nM, rolipram 10 μM, PDE5 inh. 23 μM
Method: […] fibroblasts or 500,000 SCs were lysed in 0.1 N HCl solution and cAMP was measured using a competitive binding cAMP ELISA (Assay Designs). Cells were treated with 100 ng/ml PTX for 16 h. […] Cells were treated with forskolin in the presence of the inhibitors for 1 h. […] For the qualitative and quantitative PKA assay (Promega), cells were treated with 10 μM forskolin for 30 min, lysed in 1% NP-40 buffer with 150 mM NaCl, 50 mM Tris, and 1 mM EGTA, and protein concentration was determined using the Bradford Assay (Bio-Rad Laboratories). 1 μg was loaded into the PKA assay reaction mix according to the manufacturer's protocol (Promega).

[2] = test system: NIH3T3 cells; assay: RT-PCR / real-time PCR of tPA and PAI-1 RNA; type: cell-based
Method: RT-PCR was performed as described previously (Akassoglou et al., 2002). Primers for tPA, uPA, and PAI-1 genes were used as described previously (Yamamoto and Loskutoff, 1996). Real-time PCR was performed using the Opticon DNA Engine 2 (MJ Research) and the Quantitect SYBR Green PCR kit (QIAGEN). Results were analyzed with Opticon 2 software using the comparative Ct method as described previously (Livak and Schmittgen, 2001). Data were expressed as ΔΔCt for the tPA gene normalized against GAPDH.

[3] = test system: NIH3T3p75NTR cells; assay: Quantification of tPA activity; type: cell-based; settings: 10 μM forskolin 16 h; 200 nM KT5720; IBMX; rolipram
Method: (§1) Quantification of tPA and uPA activity in SC and fibroblast in lysates and supernatants was performed according to the directions of the activity assay kits from American Diagnostica and Chemicon, respectively. To elevate cAMP cells were treated either with 2 mM db-cAMP (Sigma-Aldrich) or with 10 μM forskolin (Sigma-Aldrich) for 16 h. To block PKA activity, cells were treated with 200 nM KT5720 (Calbiochem).

[4] = test system: NIH3T3 cells; assay: Quantification of tPA activity; type: cell-based; settings: 10 μM forskolin 16 h; 200 nM KT5720; IBMX
Method: as §1

[5] = test system: wt and p75NTR−/− SCs; assay: Quantification of tPA activity in primary Schwann cells; type: cell-based, mouse; settings: 10 μM forskolin, 100 ng/ml NGF, 50 ng/ml BDNF, 16 h
Method: as §1
Murine SCs were isolated as described previously (Syroid et al., 2000). NIH3T3 or HEK293 cells were cotransfected either with p75NTR FL, ICD or deletion constructs, and PDE4A5 cDNAs using Lipofectamine 2000 (Invitrogen) as described in the Results section. CGNs were isolated from P10 animals (Yamashita and Tohyama, 2003). CGNs were lysed immediately for co-IP, without plating. siRNA directed against p75NTR (Dharmacon; SMART Pool reagent, Cat. M-080041-00; Cat. M-009340) was transfected into SCs and NIH3T3p75NTR cells using Dharmafect (Dharmacon).

[6] = test system: NIH3T3 cells; assay: Fibrin degradation assay on 3D fibrin gel; type: cell-based
Method: (§2) Coating with fibrin was prepared as described previously (Lansink et al., 1998). To quantitate fibrin degradation, the supernatant was aspirated and the remaining gel was weighed using an analytical balance. Decrease of gel weight corresponded to increased fibrin gel degradation.

[7] = molecular target: T1, tPA (Mus musculus, UniProt P11214); assay: In situ zymography of crushed sciatic nerve; type: biochemical; settings: injured sciatic nerve of p75NTR−/− mice, in the presence of plasminogen
T1 construct: from tissue; host or cells: crushed sciatic nerve of p75NTR-/- mice (C57Bl/6 background)
Method: In situ zymographies were performed as described previously (Akassoglou et al., 2000). Quantification of in situ zymographies was performed by measuring the area of the lytic zone surrounding each nerve, and dividing that value by the area of the nerve. Images were collected after 8 h of incubation for the sciatic nerve and 4 h of incubation for the lung. For cell zymographies, cultures were washed four times with PBS/BSA and overlaid with 200 μl of Dulbecco's […] medium containing 1% LMP agarose, 2.5% boiled nonfat milk, and 25 μg/ml human plasminogen. The overlay was allowed to harden, and plates were incubated in a cell culture incubator at 37° C. Pictures of lytic zones were taken using an inverted microscope under dark field (Carl Zeiss Microlmaging, Inc.).

[8] = test system: NIH3T3p75NTR cells; assay: Fibrin degradation assay on 3D fibrin gel; type: cell-based; settings: 2 mM db-cAMP
Method: as §1, §2

[9] = molecular target: p75 neurotrophin receptor (p75NTR), stably expressed in NIH3T3p75NTR cells

T1 sequence (P11214 33-559): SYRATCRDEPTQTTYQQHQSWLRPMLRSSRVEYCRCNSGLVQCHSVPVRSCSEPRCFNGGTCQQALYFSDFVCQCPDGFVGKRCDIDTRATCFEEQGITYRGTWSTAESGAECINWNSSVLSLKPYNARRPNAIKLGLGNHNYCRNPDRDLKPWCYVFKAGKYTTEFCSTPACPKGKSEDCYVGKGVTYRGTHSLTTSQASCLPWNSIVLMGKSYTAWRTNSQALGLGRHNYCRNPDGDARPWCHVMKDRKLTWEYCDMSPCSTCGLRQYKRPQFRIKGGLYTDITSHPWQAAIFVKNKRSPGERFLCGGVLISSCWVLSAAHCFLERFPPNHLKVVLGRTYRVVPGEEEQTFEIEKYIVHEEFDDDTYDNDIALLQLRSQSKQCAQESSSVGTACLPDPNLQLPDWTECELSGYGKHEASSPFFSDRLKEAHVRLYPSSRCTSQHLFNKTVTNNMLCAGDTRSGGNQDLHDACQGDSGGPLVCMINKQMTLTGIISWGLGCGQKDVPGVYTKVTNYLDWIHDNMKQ

## CCCCCC[C@@H]([C@@H](C)O)n1cnc2c(N)ncnc21 (racemic) [EHNA, erythro-9-(2-Hydroxy-3-nonyl)adenine]
[1]
  intracellular cAMP levels in NIH3T3p75NTR cells: only IBMX (P<0.0001) and rolipram (P<0.0001) increase

## COc1cc2c(cc1OC)-c1c/c(=N\c3c(C)cc(C)cc3C)n(C)c(=O)n1CC2 [trequinsin]
[1]
  intracellular cAMP levels in NIH3T3p75NTR cells: only IBMX (P<0.0001) and rolipram (P<0.0001) increase

## CCCCCCOC(=O)[C@]1(O)C[C@@H]2O[C@@]1(C)n1c3ccccc3c3c4c(c5c6ccccc6n2c5c31)C(=O)NC4 [KT5720]
[2]
  tPA mRNA in NIH3T3 cells: decreases tPA transcript; also recorded: decreases tPA RNA
[3]
  tPA activity in NIH3T3p75NTR cells: decrease of tPA activity
[4]
  tPA activity in NIH3T3 cells: decrease of tPA activity; also recorded: decreases tPA activity

## COc1ccc2ncnc(NCc3ccc4c(c3)OCO4)c2c1 [4-{[3′,4′-(Methylenedioxy)benzyl]amino}-6-methoxyquinazoline]
[1]
  intracellular cAMP levels in NIH3T3p75NTR cells: only IBMX (P<0.0001) and rolipram (P<0.0001) increase

## COCc1nc2c([nH]1)c(=O)n(C)c(=O)n2CC(C)C [8-Methoxymethyl-IBMX, 8-methoxymethyl-3-isobutyl-1-methylxanthine]
[1]
  intracellular cAMP levels in NIH3T3p75NTR cells: only IBMX (P<0.0001) and rolipram (P<0.0001) increase

## NGF: nerve growth factor
[5]
  tPA activity in SCs: do not affect activity of tPA; also recorded: has no effect on tPA
[1]; 100 ng/ml NGF, 50 ng/ml BDNF, 750 ng/ml FcTrkB, 1.35 ug/ml Fcp75NTR, 1 h
  intracellular cAMP levels in NIH3T3p75NTR cells, neurotrophins or their inhibition: does not affect the p75NTR-mediated suppression of cAMP

## Aprotinin
[6]
  fibrin degradation by NIH3T3 cells: completely inhibits fibrin degradation

## Cl.Cl.N=C(N)c1ccc(C=C2CCCCC(=Cc3ccc(C(=N)N)cc3)C2=O)cc1 [tPASTOP]
[7]
  proteolytic activity (in situ zymography): blocks proteolytic activity

## CCCC(=O)Nc1ncnc2c1ncn2[C@@H]1O[C@@H]2COP(=O)(O)O[C@H]2[C@H]1OC(=O)CCC [db-cAMP, dibutyryl-cAMP]
[8]
  fibrinolysis in NIH3T3p75NTR cells: induces fibrinolysis; also recorded: overcomes the inhibitory effect of p75NTR

## pertussis toxin [PTX]
[1]
  intracellular cAMP levels in NIH3T3p75NTR cells: does not rescue the p75NTR-mediated down-regulation of cAMP; also recorded: only IBMX (P<0.0001) and rolipram (P<0.0001) increase

B1: endogenous PDE4A5 (PDE4A, 109 kD) of NIH3T3p75NTR cells (protein)
chain: MEPPAAPSERSLSLSLPGPREGQATLKPPPQHLWRQPRTPIRIQQRGYSDSAERSEPERSPHRPIERADAVDTGDRPGLRTTRMSWPSSFHGTGTGGGSSRRLEAENGPTPSPGRSPLDSQASPGLMLHAGAATSQRRESFLYRSDSDYDMSPKTMSRNSSVASEAHGEDLIVTPFAQVLASLRNVRSNFSLLTNVPIPSNKRSPLGGPPSVCKATLSEETCQQLARETLEELDWCLEQLETMQTYRSVSEMASHKFKRMLNRELTHLSEMSRSGNQVSEYISNTFLDKQHEVEIPSPTPRQRPFQQPPPAAVQQAQPMSQITGLKKLVHTGSLNINVPRFGVKTDQEDLLAQELENLSKWGLNIFCVSEYAGGRSLSCIMYTIFQERDLLKKFHIPVDTMMTYMLTLEDHYHADVAYHNSLHAADVLQSTHVLLATPALDAVFTDLEILAALFAAAIHDVDHPGVSNQFLINTNSELALMYNDESVLENHHLAVGFKLLQEENCDIFQNLSKRQRQSLRKMVIDMVLATDMSKHMTLLADLKTMVETKKVTSSGVLLLDNYSDRIQVLRNMVHCADLSNPTKPLELYRQWTDRIMAEFFQQGDRERERGMEISPMCDKHTASVEKSQVGFIDYIVHPLWETWADLVHPDAQDILDTLEDNRDWYHSAIRQSPSPTLEEEPGVLSDPALPDKFQFELTLEEEDEEDSLEVPGLPCTEETLLAPHDTRAQAMEQSKVKGQSPAVVEVAESLKQETASAHGAPEESAEAVGHSFSLETSILPDLRTLSPSEEAQGLLGLPSMAAEVEAPRDHLAAMRACSACSGTSGDNSAVISAPGRWGSGGDPA
[9]
  FRET emission ratio change of pm-AKAR2.2 in response to forskolin (membrane-associated PKA activity): NIH3T3p75NTR cells show an attenuated response, revealing reduced PKA activity at the plasma membrane

B2: BDNF: Brainderived neurotrophic factor (protein, UniProt P23560 19-247, looked up)
Neurotrophic factor BDNF …: APMKEANIRGQGGLAYPGVRTHGTLESVNGPKAGSRGLTSLADTFEHVIEELLDEDQKVRPNEENNKDADLYTSRVMLSSQVPLEPPLLFLLEEYKNYLDAANMSMRVRRHSDPARRGELSVCDSISEWVTAADKKTAVDMSGGTVTVLEKVPVSKGQLKQYFYETKCNPMGYTKEGCRGIDKRHWNSQCRTTQSYVRALTMDSKKRIGWRFIRIDTSCVCTLTIKRGR
[5]
  tPA activity in SCs: do not affect activity of tPA; also recorded: has no effect on tPA
